Laboratory results: US11179408B2, “Use of cyanoglucosides and pharmaceutical formulations thereof in the treatment of diabetes” (UNIVERSIDADE ESTADUAL PAULISTA JULIO DE MESQUITA FILHO, priority 2016, dated 2021)

Key:
normal rats = details: oral, 200 mg/kg, 1 h after treatment; cited from earlier work
[1] = tested on: alloxan-induced diabetic rats; details: oral, 50, 100 and 200 mg/kg; cited from earlier work
diabetic mice [2] = test: Fasting blood glucose in streptozotocin diabetic mice; type: in vivo, Male Swiss mice; details: for fasting blood glucose: streptozotocin diabetic mice, end of treatment, p<0.05
Protocol: The hydroalcoholic extract as obtained in Example 1 and the major compound lithospermoside (BH-21) as obtained in Example 2 were evaluated for their pharmacological activity in reducing fasting blood glucose and improving glucose tolerance in diabetic animals as described below.
(§1) The major compound of the cyanoglicoside fraction, BH-21 was tested at a concentration of 10 mg/kg in diabetic mice by gavage daily for 28 days. Male Swiss mice were divided into two groups and treated daily for 28 days by gavage: a control group (CTLSAL) that received saline vehicle (0.9% NaCl) and a group called streptozotocin, previously treated with this drug (150 mg/kg). Animals with blood glucose higher than 250 mg/dl were included in the study and divided into three experimental groups. One group, named streptozotocin saline (STZSAL) received saline (0.9% NaCl); another group of animals treated with metformin (STZMET) at the dose of 300 mg/kg and a third group (LITHOS) received the compound BH-21 (lithospermoside), diluted in saline at a dose of 10 mg/kg body weight.

diabetic mice [3] = test: Intraperitoneal glucose tolerance test (IPGTT) in diabetic mice; type: in vivo; details: streptozotocin diabetic mice; for IPGTT area under the curve (AUC): compared to CTLSAL group
Protocol: The leaves extract obtained under Example 1 was tested at a concentration of 400 mg/kg. The mice were treated daily for days by gavage with the extract as well as metformin (300 mg/kg), and at the end of treatment they underwent an […] glucose tolerance test.
The intraperitoneal glucose tolerance assay (IPGTT) was used to evaluate the glucose disappearance from the plasma of 8-10 hours fasted mice at time 0 and after glucose intraperitoneal injection (2 g/kg) in 15, 30, 60, 90 and 120 min as represented on FIG. 2A where curves represent: CTLSAL: normoglycemic mice treated orally with saline vehicle (0.9% NaCl), STZSAL: diabetic mice treated orally with saline vehicle (0.9% NaCl), STZMET: diabetic mice treated orally with metformin at the concentration of 300 mg/kg, STZEXT: diabetic mice treated orally with 70% EtOH extract at a concentration of 400 mg/kg. […] Data expressed as mean±standard error of the mean. ANOVA followed by Tukey post test. a vs. CTLSAL, b vs. STZSAL, c vs. STZMET, N=8-12, p<0.05.
as §1

[4] = 10 mg/kg by gavage daily for 28 days

In the case of `C[C@@H]1O[C@@H](Oc2cc(O)c3c(=O)c(O[C@@H]4O[C@@H](C)[C@H](O)[C@@H](O)[C@H]4O)c(-c4ccc(O)cc4)oc3c2)[C@H](O)[C@H](O)[C@H]1O` [kaempferitrin, kaempferol-3,7-O—(R)-dirhamnoside], the blood glucose lowering (normal rats) is given as “blood glucose lowering was observed only with the higher dose” and the hypoglycemic effect [1] is given as “evident at all doses tested”.
In the case of `CN(C)C(=N)N=C(N)N` [metformin], the fasting blood glucose (diabetic mice [2]; metformin 300 mg/kg daily for 28 days, vs CTLSAL) is reported as “significantly increased” and the “IPGTT area under the curve (AUC)” value (diabetic mice [3]; metformin 300 mg/kg daily for 28 days) is reported as “no significant difference”.
In the case of `N#C/C=C1/C=C[C@@H](O)[C@H](O)[C@H]1OC1OC(CO)C(O)C(O)C1O` (stereo in doubt) [BH-21, (2Z)-2-[(4R,5S,6S)-4,5-dihydroxy-6-[[(2S,3S,4R,5R,6S)-3,4,5-trihydroxy-6-(hydroxymethyl)-2-oxanyl]oxy]-1-cyclohex-2-enylidene]acetonitrile], the “in vivo hypoglycemic activity relative to metformin” value (diabetic mice [2]; higher than metformin) is reported as “about 30 times”, the fasting blood glucose (diabetic mice [2]; [4]) is reported as “significantly lower than in STZSAL and STZMET groups but greater than the CTLSAL group” and the “IPGTT area under the curve (AUC)” value (diabetic mice [3]; [4]) is reported as “no significant difference”. The “IPGTT blood glucose values after intraperitoneal administration of glucose” value (diabetic mice [3]; 10 mg/kg daily for 28 days, vs metformin 300 mg/kg group, p<0.05) was “significantly lower than the STZMET group at all times”.
